Laboratory results reported in US9062048B2, “Cyclohexyl-azetidinyl antagonists of CCR2” (Janssen Pharmaceutica NV, priority 2010, dated 2015).
pIC50: −log10 of the molar value.

biological target: CCR2 (Homo sapiens (Human), UniProt P41597); assay: MCP-1 Receptor Binding Assay in THP-1 Cells; settings: 0.5 nM 125I labeled MCP-1, 2 hours at 30° C., read-out: Inhibition of MCP-1 Binding IC50 MCP1B;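 also: THP-1 is a human monocytic cell line, and nonspecific binding was defined with 1 µM unlabeled MCP-1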
Sequence (P41597 whole entry): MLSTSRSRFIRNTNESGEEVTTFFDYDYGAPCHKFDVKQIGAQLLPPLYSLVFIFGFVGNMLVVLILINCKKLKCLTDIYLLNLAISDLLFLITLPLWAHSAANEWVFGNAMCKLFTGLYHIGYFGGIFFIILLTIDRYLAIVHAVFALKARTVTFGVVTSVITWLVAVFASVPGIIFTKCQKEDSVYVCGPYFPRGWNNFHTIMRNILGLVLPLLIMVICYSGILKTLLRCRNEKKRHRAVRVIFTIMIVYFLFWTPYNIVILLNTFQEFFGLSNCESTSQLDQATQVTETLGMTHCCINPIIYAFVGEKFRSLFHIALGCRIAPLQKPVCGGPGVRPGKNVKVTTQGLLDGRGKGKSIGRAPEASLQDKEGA

| SMILES | pIC50 |
| --- | --- |
| CC(C)C(O)[C@H]1CC[C@@H](N2CC(NC(=O)CNc3ncnc4ccc(C(F)(F)F)cc34)C2)CC1 (stereo partly drawn) [Example 7, N-(1-((1S,4s)-4-(1-hydroxy-2-methylpropyl)cyclohexyl)azetidin-3-yl)-2-((6-(trifluoromethyl)quinazolin-4-yl)amino)acetamide] | 8.05 |
| O=C(CNc1ncnc2ccc(C(F)(F)F)cc12)NC1CN([C@H]2CC[C@@H]([C@@H](O)C3CC3)CC2)C1 [(−) 4, N-(1-((1S,4s)-4-(cyclopropyl(hydroxy)methyl)cyclohexyl)azetidin-3-yl)-2-((6-(trifluoromethyl)quinazolin-4-yl)amino)acetamide] | 8.10 |
| CCOCC1CCC(N2CC(NC(=O)CNc3ncnc4ccc(C(F)(F)F)cc34)C2)CC1 (stereo not drawn) [Example 105, N-(1-(4-(ethoxymethyl)cyclohexyl)azetidin-3-yl)-2-((6-(trifluoromethyl)quinazolin-4-yl)amino)acetamide] | 7.85 |
| O=C(CNc1ncnc2ccc(C(F)(F)F)cc12)NC1CN([C@H]2CC[C@@H](C3CCCC3)CC2)C1 [Example 33, N-(1-((1s,4s)-4-cyclopentylcyclohexyl)azetidin-3-yl)-2-((6-(trifluoromethyl)quinazolin-4-yl)amino)acetamide] | 6.85 |
| C=C[C@H]1CC[C@@H](N2CC(NC(=O)CNc3ncnc4ccc(C(F)(F)F)cc34)C2)CC1 [Example 9, 2-((6-(trifluoromethyl)quinazolin-4-yl)amino)-N-(1-((1s,4s)-4-vinylcyclohexyl)azetidin-3-yl)acetamide and 2-((6-(trifluoromethyl)quinazolin-4-yl)amino)-N-(1-((1r,4r)-4-vinylcyclohexyl)azetidin-3-yl)acetamide] | 8.05 |
| CSCC(O)[C@H]1CC[C@@H](N2CC(NC(=O)CNc3ncnc4ccc(C(F)(F)F)cc34)C2)CC1 (stereo partly drawn) [Example 18, N-(1-((1S,4s)-4-(1-hydroxy-2-(methylthio)ethyl)cyclohexyl)azetidin-3-yl)-2-((6-(trifluoromethyl)quinazolin-4-yl)amino)acetamide] | 8.00 |
| CCC(NC(=O)OC)[C@H]1CC[C@@H](N2CC(NC(=O)CNc3ncnc4ccc(C(F)(F)F)cc34)C2)CC1 (stereo partly drawn) [Example 104, methyl (−1-((1s,4S)-4-(3-(2-((6-(trifluoromethyl)quinazolin-4-yl)amino)acetamido)azetidin-1-yl)cyclohexyl)propyl)carbamate] | 6.19 |
| CCC(O)[C@H]1CC[C@@H](N2CC(NC(=O)CNc3cc(C(F)(F)F)nc4ccc(C(F)(F)F)cc34)C2)CC1 (stereo partly drawn) [Example 25, 2-((2,6-bis(trifluoromethyl)quinolin-4-yl)amino)-N-(1((-1R,4s)-4-(1-hydroxypropyl)cyclohexyl)azetidin-3-yl)acetamide] | 7.00 |
| C=CC(O)[C@H]1CC[C@@H](N2CC(NC(=O)CNc3ncnc4ccc(C(F)(F)F)cc34)C2)CC1 (stereo partly drawn) [Example 92, N-(1-((1S,4s)-4-(1-hydroxyallyl)cyclohexyl)azetidin-3-yl)-2-((6-(trifluoromethyl)quinazolin-4-yl)amino)acetamide] | 7.80 |
| N#Cc1cc(NCC(=O)N[C@H]2C[C@@H](N3CCC(O)(c4cncs4)CC3)C2)c2cc(C(F)(F)F)ccc2n1 [Example 163, 2-((2-cyano-6-(trifluoromethyl)quinolin-4-yl)amino)-N-((1s,3s)-3-(4-hydroxy-4-(thiazol-5-yl)piperidin-1-yl)cyclobutyl)acetamide] | 5.59 |
| CC[C@H](O)C1CCC(N2CC(NC(=O)CNc3nccc4ccc(C(F)(F)F)cc34)C2)CC1 (stereo partly drawn) [Example 168] | < 4.60 |
| CCC(NC(=O)N(C)C)[C@H]1CC[C@@H](N2CC(NC(=O)CNc3ncnc4ccc(C(F)(F)F)cc34)C2)CC1 (stereo partly drawn) [Example 143, N-(1-((1R,4s)-4-((S)-1-(3,3-dimethylureido)propyl)cyclohexyl)azetidin-3-yl)-2-((6-(trifluoromethyl)quinazolin-4-yl)amino)acetamide] | 4.86 |
| CCCC(O)[C@H]1CC[C@@H](N2CC(NC(=O)CNc3ncnc4ccc(C(F)(F)F)cc34)C2)CC1 (stereo partly drawn) [Example 90, N-(1-((1S,4s)-4-(1-hydroxybutyl)cyclohexyl)azetidin-3-yl)-2-((6-(trifluoromethyl)quinazolin-4-yl)amino)acetamide] | 7.89 |
| CCCN(C=O)[C@H]1CC[C@@H](N2CC(NC(=O)CNc3ncnc4ccc(C(F)(F)F)cc34)C2)CC1 [Example 51, N-(1-((1s,4s)-4-(N-propylformamido)cyclohexyl)azetidin-3-yl)-2-((6-(trifluoromethyl)quinazolin-4-yl)amino)acetamide] | 7.43 |
| O=C(CNc1ncnc2ccc(C(F)(F)F)cc12)NC1CN([C@H]2CC[C@@H](C(O)c3cncs3)CC2)C1 (stereo partly drawn) [Example 99, N-(1-((1R,4s)-4-(hydroxy(thiazol-5-yl)methyl)cyclohexyl)azetidin-3-yl)-2-((6-(trifluoromethyl)quinazolin-4-yl)amino)acetamide] | 7.72 |
| CCC(O)[C@H]1CC[C@@H](N2CC(NC(=O)CNc3ncnc4ccc(C(F)(F)F)cc34)C2)CC1 (stereo partly drawn) [Example 93, N-(1-((1S,4s)-4-(1-hydroxypropyl)cyclohexyl)azetidin-3-yl)-2-((6-(trifluoromethyl)quinazolin-4-yl)amino)acetamide] | 7.68 |
| CCC(O)(CC)[C@H]1CC[C@@H](N2CC(NC(=O)CNc3ncnc4ccc(C(F)(F)F)cc34)C2)CC1 [Example 30, N-(1-((1s,4s)-4-(3-hydroxypentan-3-yl)cyclohexyl)azetidin-3-yl)-2-((6-(trifluoromethyl)quinazolin-4-yl)amino)acetamide] | 6.68 |
| [2H][C@]1(N2CC(NC(=O)CNc3ncnc4ccc(C(F)(F)F)cc34)C2)CC[C@@H](C(C)C)CC1 [Example 118, N-(1-deutero-1-((1s,4s)-4-isopropylcyclohexyl)azetidin-3-yl)-2-((6-(trifluoromethyl)quinazolin-4-yl)amino)acetamide] | 7.07 |
| O=C(CNc1ncnc2ccc(C(F)(F)F)cc12)NC1CN([C@H]2CC[C@@H](C(O)C(F)(F)F)CC2)C1 (stereo partly drawn) [Example 34, N-(1-((1R,4s)-4-(2,2,2-trifluoro-1-hydroxyethyl)cyclohexyl)azetidin-3-yl)-2-((6-(trifluoromethyl)quinazolin-4-yl)amino)acetamide] | 7.14 |
| O=C(CNc1ncnc2ccc(C(F)(F)F)cc12)NC1CN([C@H]2CC[C@@H](CN3CCCCC3=O)CC2)C1 [Example 54, N-(1-((1s,4s)-4-((2-oxopiperidin-1-yl)methyl)cyclohexyl)azetidin-3-yl)-2-((6-(trifluoromethyl)quinazolin-4-yl)amino)acetamide] | 6.14 |
| CN([C@H]1CC[C@@H](N2CC(NC(=O)CNc3ncnc4ccc(C(F)(F)F)cc34)C2)CC1)S(C)(=O)=O [Example 49, N-(1-((1s,4s)-4-(N-methylmethylsulfonamido)cyclohexyl)azetidin-3-yl)-2-((6-(trifluoromethyl)quinazolin-4-yl)amino)acetamide] | 6.02 |
| O=C(CNc1cnnc2ccc(C(F)(F)F)cc12)NC1CN([C@H]2CC[C@@](O)(c3cncs3)CC2)C1 [Example 147, N-(1-((1r,4r)-4-hydroxy-4-(thiazol-5-yl)cyclohexyl)azetidin-3-yl)-2-((6-(trifluoromethyl)cinnolin-4-yl)amino)acetamide] | 8.04 |
| CCCN(C(=O)OCc1ccccc1)[C@H]1CC[C@@H](N2CC(NC(=O)CNc3ncnc4ccc(C(F)(F)F)cc34)C2)CC1 [Example 48, benzyl propyl((1s,4s)-4-(3-(2-((6-(trifluoromethyl)quinazolin-4-yl)amino)acetamido)azetidin-1-yl)cyclohexyl)carbamate] | 6.52 |
| N#Cc1cc(NCC(=O)N[C@H]2C[C@H](N3CCC(O)(c4cncs4)CC3)C2)c2cc(C(F)(F)F)ccc2n1 [Example 164, 2-((2-cyano-6-(trifluoromethyl)quinolin-4-yl)amino)-N-((1r,3r)-3-(4-hydroxy-4-(thiazol-5-yl)piperidin-1-yl)cyclobutyl)acetamide] | < 4.60 |
| CCC(NS(=O)(=O)C(F)(F)F)[C@H]1CC[C@@H](N2CC(NC(=O)CNc3ncnc4ccc(C(F)(F)F)cc34)C2)CC1 (stereo partly drawn) [Example 140, 2-((6-(trifluoromethyl)quinazolin-4-yl)amino)-N-(1-((1R,4s)-4-((S)-1-(trifluoromethylsulfonamido)propyl)cyclohexyl)azetidin-3-yl)acetamide] | 5.52 |
| O=C(CNc1ncnc2ccc(C(F)(F)F)cc12)NC1CN([C@H]2CC[C@@H](C3C=CCO3)CC2)C1 (stereo partly drawn) [Example 10, N-(1-((1R,4s)-4-(2,5-dihydrofuran-2-yl)cyclohexyl)azetidin-3-yl)-2-((6-(trifluoromethyl)quinazolin-4-yl)amino)acetamide and N-(1-((1R,4r)-4-(2,5-dihydrofuran-2-yl)cyclohexyl)azetidin-3-yl)-2-((6-(trifluoromethyl)quinazolin-4-yl)amino)acetamide] | 8.05 |
| CNc1cnccc1C1CCC(N2CC(NC(=O)CNc3ncnc4ccc(C(F)(F)F)cc34)C2)CC1 (stereo not drawn) [Example 74, N-(1-(4-(3-(methylamino)pyridin-4-yl)cyclohexyl)azetidin-3-yl)-2-((6-(trifluoromethyl)quinazolin-4-yl)amino)acetamide] | 6.89 |
| O=C(CNc1ncnc2ccc(C(F)(F)F)cc12)NC1CN(C2CCC([C@@H](O)C3CC3)CC2)C1 (single isomer, unassigned; (+)) [(+) 6] | 7.60 |
| O=C(CNc1ncnc2ccc(C(F)(F)F)cc12)NC1CN(C2CCC(C(F)(F)F)CC2)C1 (stereo not drawn) [Example 123, N-(1-(4-(trifluoromethyl)cyclohexyl)azetidin-3-yl)-2-((6-(trifluoromethyl)quinazolin-4-yl)amino)acetamide] | 6.89 |
| CN(C)C(=O)OC[C@H]1CC[C@@H](N2CC(NC(=O)CNc3ncnc4ccc(C(F)(F)F)cc34)C2)CC1 [Example 124, ((1s,4s)-4-(3-(2-((6-(trifluoromethyl)quinazolin-4-yl)amino)acetamido)azetidin-1-yl)cyclohexyl)methyl dimethylcarbamate] | 6.68 |
